Tests used:
[1] = biological target: human ERK-2 (Mitogen Activated Kinase 1) (Homo sapiens (Human), UniProt P28482); assay: ERK-2 Enzymatic Assay; assay type: biochemical; conditions: ERK-2 enzyme, 25 μM ATP; single assay or mean of multiple assays; read-out: Biological Example 1 IC50
[2] = system: PMA-stimulated P90RSK(Ser380) phosphorylation in HepG2 cells; assay: Cellular P90RSK(Ser380) Phosphorylation Assay; assay type: cell-based; conditions: Homo sapiens, 1.5 hours compound incubation, PMA 100 ng/mL, normalized to GAPDH, single assay or mean of multiple assays, read-out: Biological Example 2 IC50
Method: Inhibition of PMA-stimulated P90RSK(Ser380) phosphorylation was determined by the following in vitro cellular mechanistic assay, which comprises incubating cells with a compound for 1.5 hours and quantifying fluorescent pP90RSK(Ser380) signal on fixed cells and normalizing to GAPDH signal.
HepG2 cells were obtained from ATCC (Manassas, Va.) and grown in DMEM supplemented with 10% fetal bovine serum. Cells were plated in 96-well plates at 35,000 cells/well and allowed to attach overnight at 37° C./5% CO2. Diluted compounds were then added at a final concentration of 0.5% DMSO. After 1.5 hours compound incubation, cells were stimulated with the addition of phorbol 12-myristate 13-acetate (“PMA”) at a final concentration of 100 ng/mL; the PMA stimulation was a 30-minute incubation at 37° C./5% CO2. After the 30-minute PMA stimulation, cells were washed with phosphate buffered saline (“PBS”) and fixed in 3.7% formaldehyde in PBS at room temperature for 15-20 minutes. This was followed by another wash in PBS and then permeabilization in 100% MeOH at room temperature for 10-15 minutes. Following the permeabilization incubation, cells were washed in PBS/0.05% Tween-20, followed by a block in Odyssey blocking buffer (LI-COR Biosciences) for at least 1 hour. Antibodies to phosphorylated P90RSK(Ser380) (Cell Signaling #9335, rabbit monoclonal) and GAPDH (Fitzgerald 10R-G109a, mouse monoclonal) were added to the cells and incubated overnight at 4° C. pP90RSK(Ser380) antibody was used at a 1:250 dilution; GAPDH was used at a 1:10,000 dilution. After washing with PBS/0.05% Tween-20, the cells were incubated with fluorescently-labeled secondary antibodies (Anti-rabbit-Alexa Flour680, Invitrogen Cat#A21109; Anti-mouse-IRDye800CW, Rockland Inc. Cat#610-131-121) for 1 hour. Both secondary antibodies were used at a 1:1000 dilution. Cells were then washed and analyzed for fluorescence at both wavelengths using the Odyssey Infrared Imaging System (LI-COR Biosciences). Phosphorylated P90RSK(Ser380) signal was normalized to GAPDH signal.

human ERK-2 (Mitogen Activated Kinase 1), sequence (P28482 8-360): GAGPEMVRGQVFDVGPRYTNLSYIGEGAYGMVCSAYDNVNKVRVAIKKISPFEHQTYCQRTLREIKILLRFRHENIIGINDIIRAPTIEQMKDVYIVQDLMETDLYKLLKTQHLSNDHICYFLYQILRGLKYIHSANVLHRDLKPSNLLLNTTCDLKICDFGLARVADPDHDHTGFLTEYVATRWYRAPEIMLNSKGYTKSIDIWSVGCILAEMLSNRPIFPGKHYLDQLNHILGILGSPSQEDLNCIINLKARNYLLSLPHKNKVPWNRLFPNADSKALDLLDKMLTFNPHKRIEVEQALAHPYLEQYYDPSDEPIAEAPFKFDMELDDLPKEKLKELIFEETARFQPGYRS

## COc1ccc(Cc2nnc3cc(-c4ccnc(NC5CCOCC5)n4)ccn23)cn1 [Example 272, 4-(3-((6-methoxypyridin-3-yl)methyl)-[1,2,4]triazolo[4,3-a]pyridin-7-yl)-N-(tetrahydro-2H-pyran-4-yl)pyrimidin-2-amine]
[1]
  IC50: 0.9 nM
[2]
  IC50: 95.4 nM

## Cn1nccc1Nc1nccc(-c2ccn3c(Cc4cccc(-c5ccccc5)n4)nnc3c2)n1 [Example 275, N-(1-methyl-1H-pyrazol-5-yl)-4-(3-((6-phenylpyridin-2-yl)methyl)-[1,2,4]triazolo[4,3-a]pyridin-7-yl)pyrimidin-2-amine]
[1]
  IC50: 1.5 nM
[2]
  IC50: 20 nM

## Cc1ccnc(Cc2nnc3cc(-c4ccnc(Nc5ccnn5C)n4)ccn23)c1 [Example 276, N-(1-methyl-1H-pyrazol-5-yl)-4-(3-((4-methylpyridin-2-yl)methyl)-[1,2,4]triazolo[4,3-a]pyridin-7-yl)pyrimidin-2-amine]
[1]
  IC50: 0.9 nM
[2]
  IC50: 51.7 nM

## c1ccc(Cc2nnc3cc(-c4ccnc(NC5CCOCC5)n4)ccn23)nc1 [Example 278, 4-(3-(pyridin-2-ylmethyl)-[1,2,4]triazolo[4,3-a]pyridin-7-yl)-N-(tetrahydro-2H-pyran-4-yl)pyrimidin-2-amine]
[1]
  IC50: 0.8 nM
[2]
  IC50: 67.6 nM

## Cn1nccc1Nc1cc(-c2ccn3c(CC(C)(C)C)nnc3c2)ccn1 [Example 279, N-(1-methyl-1H-pyrazol-5-yl)-4-(3-neopentyl-[1,2,4]triazolo[4,3-a]pyridin-7-yl)pyridin-2-amine]
[1]
  IC50: 0.6 nM
[2]
  IC50: 51.9 nM

## Cn1nccc1Nc1cc(-c2ccn3c(CC4CC4)nnc3c2)ccn1 [Example 295, 4-(3-(cyclopropylmethyl)-[1,2,4]triazolo[4,3-a]pyridin-7-yl)-N-(1-methyl-1H-pyrazol-5-yl)pyridin-2-amine]
[1]
  IC50: 0.4 nM
[2]
  IC50: 117 nM

## Cn1nccc1Nc1nccc(-c2ccn3c(CS(=O)(=O)c4ccccc4)nnc3c2)n1 [Example 306, N-(1-methyl-1H-pyrazol-5-yl)-4-(3-((phenylsulfonyl)methyl)-[1,2,4]triazolo[4,3-a]pyridin-7-yl)pyrimidin-2-amine]
[1]
  IC50: 1.8 nM
[2]
  IC50: 63.7 nM

## Cn1nccc1Nc1nccc(-c2ccn3c(CSC4CCCC4)nnc3c2)n1 [Example 307, 4-(3-((cyclopentylthio)methyl)-[1,2,4]triazolo[4,3-a]pyridin-7-yl)-N-(1-methyl-1H-pyrazol-5-yl)pyrimidin-2-amine]
[1]
  IC50: 3.5 nM
[2]
  IC50: 32.2 nM

## Cn1nccc1Nc1nccc(-c2ccn3c(CC4CCC(F)(F)CC4)nnc3c2)n1 [Example 317, 4-(3-((4,4-difluorocyclohexyl)methyl)-[1,2,4]triazolo[4,3-a]pyridin-7-yl)-N-(1-methyl-1H-pyrazol-5-yl)pyrimidin-2-amine]
[1]
  IC50: 0.9 nM
[2]
  IC50: 35.8 nM

## CN(C)C(c1ccc(F)cc1)c1nnc2cc(-c3ccnc(Nc4ccnn4C)n3)ccn12 (stereo not shown) [Example 377, 4-(3-((dimethylamino)(4-fluorophenyl)methyl)-[1,2,4]triazolo[4,3-a]pyridin-7-yl)-N-(1-methyl-1H-pyrazol-5-yl)pyrimidin-2-amine]
[1]
  IC50: 5.4 nM
[2]
  IC50: 82.9 nM

## Cn1nccc1Nc1nccc(-c2ccn3c(CC45CC6CC(CC(C6)C4)C5)nnc3c2)n1 [Example 379, 4-(3-((1s,3s)-adamantan-1-ylmethyl)-[1,2,4]triazolo[4,3-a]pyridin-7-yl)-N-(1-methyl-1H-pyrazol-5-yl)pyrimidin-2-amine]
[1]
  IC50: 2.4 nM
[2]
  IC50: 24.7 nM

## Cn1nccc1Nc1cc(-c2ccn3c(CC4(C(F)(F)F)CC4)nnc3c2)ccn1 [Example 396, N-(1-methyl-1H-pyrazol-5-yl)-4-(3-((1-(trifluoromethyl)cyclopropyl)methyl)-[1,2,4]triazolo[4,3-a]pyridin-7-yl)pyridin-2-amine]
[1]
  IC50: 3.3 nM
[2]
  IC50: 35.4 nM

## Fc1ccccc1Cc1nnc2cc(-c3ccnc(NC4CCOCC4)n3)ccn12 [Example 398, 4-(3-(2-fluorobenzyl)-[1,2,4]triazolo[4,3-a]pyridin-7-yl)-N-(tetrahydro-2H-pyran-4-yl)pyrimidin-2-amine]
[1]
  IC50: 3 nM
[2]
  IC50: 15.5 nM

## Fc1ccc(Cc2nnc3cc(-c4ccnc(NC5CCOCC5)n4)ccn23)cc1 [Example 402, 4-(3-(4-fluorobenzyl)-[1,2,4]triazolo[4,3-a]pyridin-7-yl)-N-(tetrahydro-2H-pyran-4-yl)pyrimidin-2-amine]
[1]
  IC50: 0.6 nM
[2]
  IC50: 27.4 nM

## COc1ccc(Cc2nnc3cc(-c4ccnc(NC5CCOCC5)n4)ccn23)cc1F [Example 403, 4-(3-(3-fluoro-4-methoxybenzyl)-[1,2,4]triazolo[4,3-a]pyridin-7-yl)-N-(tetrahydro-2H-pyran-4-yl)pyrimidin-2-amine]
[1]
  IC50: 0.9 nM
[2]
  IC50: 18.6 nM

## Cn1nccc1Nc1nccc(-c2ccn3cnnc3c2)n1 [Example 411, 4-([1,2,4]triazolo[4,3-a]pyridin-7-yl)-N-(1-methyl-1H-pyrazol-5-yl)pyrimidin-2-amine]
[1]
  IC50: 11 nM
[2]
  IC50: 607 nM

## CC(=O)NC(Cc1nnc2cc(-c3ccnc(Nc4ccnn4C)n3)ccn12)c1ccc(F)c(Cl)c1 (stereo not shown) [Example 467, N-(1-(3-chloro-4-fluorophenyl)-2-(7-(2-((1-methyl-1H-pyrazol-5-yl)amino)pyrimidin-4-yl)-[1,2,4]triazolo[4,3-a]pyridin-3-yl)ethyl)acetamide]
[1]
  IC50: 1.8 nM
[2]
  IC50: 3350 nM

## CCOc1ccc(Cc2nnc3cc(-c4ccnc(Nc5ccnn5C)n4)ccn23)cn1 [Example 493, 4-(3-((6-ethoxypyridin-3-yl)methyl)-[1,2,4]triazolo[4,3-a]pyridin-7-yl)-N-(1-methyl-1H-pyrazol-5-yl)pyrimidin-2-amine]
[1]
  IC50: 0.8 nM
[2]
  IC50: 117 nM

## Cn1nccc1Nc1nccc(-c2ccn3c(C(=O)N4CCCC4)nnc3c2)n1 [Example 512, (7-(2-((1-methyl-1H-pyrazol-5-yl)amino)pyrimidin-4-yl)-[1,2,4]triazolo[4,3-a]pyridin-3-yl)(pyrrolidin-1-yl)methanone]
[1]
  IC50: 172 nM
[2]
  IC50: > 5000 nM

## Cn1nccc1Nc1nccc(-c2ccn3c(CC(C)(O)C4CC4)nnc3c2)n1 (stereo not shown) [Example 563, 2-cyclopropyl-1-(7-(2-((1-methyl-1H-pyrazol-5-yl)amino)pyrimidin-4-yl)-[1,2,4]triazolo[4,3-a]pyridin-3-yl)propan-2-ol]
[1]
  IC50: 661 nM
[2]
  IC50: > 5000 nM
